Among the data in patent publication US11247990B1, “Bicyclic fused pyridine compounds as inhibitors of TAM kinases” (ARRAY BIOPHARMA INC., priority 2017, dated 2022) are IC50 values, retold here.

Common to all, as to conditions: averaged IC50
The target in assay [1] is His-tagged recombinant human AXL cytoplasmic domain (Homo sapiens (Human), UniProt P30530). Kind of assay: AXL Enzyme Assay (LanthaScreen Eu Kinase Binding, TR-FRET). An outline of the steps:
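Compound displacement measured by TR-FRET after 60 min at 22 °C, using Eu-based LanthaScreen binding technology. Ratiometric emission converted to percent of control, fitted to a 4-parameter logistic curve, with IC50 at 50 POC.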
For orientation: Time-resolved FRET reads energy transfer from a long-lived donor to a nearby acceptor.

The target in assay [2] is His-tagged recombinant human MER cytoplasmic domain (Homo sapiens (Human), UniProt Q12866). The assay is described as follows: MER Enzyme Assay (LanthaScreen Eu Kinase Binding, TR-FRET). Put shortly:
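Percent of control, derived from ratiometric TR-FRET emission, was fitted to a 4-parameter logistic curve and IC50 taken at 50 POC. Binding was read after 60 min at 22 °C using Eu-based LanthaScreen technology and recombinant His-tagged MER cytoplasmic domain.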

Assay [3] concerns the target GST-tagged recombinant human TYRO3 kinase domain (Homo sapiens (Human), UniProt Q06418). The assay is described as follows: TYRO3 Enzyme Assay (LanthaScreen Eu Kinase Binding, TR-FRET). Put shortly:
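LanthaScreen Eu binding (tracer displacement) format read by TR-FRET after 60 min at 22 °C. Emission ratio converted to percent of control; IC50 taken where a 4-parameter logistic fit crosses 50 POC.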

pIC50: −log10 of the molar value. Counter-ions that a name gives are not always drawn.

Sequence of GST-tagged recombinant human TYRO3 kinase domain (Q06418 518-790): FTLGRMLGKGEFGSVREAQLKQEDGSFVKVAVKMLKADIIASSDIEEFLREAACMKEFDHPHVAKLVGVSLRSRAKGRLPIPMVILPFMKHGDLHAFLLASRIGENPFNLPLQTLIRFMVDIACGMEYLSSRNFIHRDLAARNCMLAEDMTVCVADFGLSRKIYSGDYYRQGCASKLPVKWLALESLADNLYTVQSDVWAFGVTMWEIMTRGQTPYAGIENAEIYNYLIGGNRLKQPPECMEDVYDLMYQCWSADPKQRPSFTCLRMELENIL
Sequence of His-tagged recombinant human MER cytoplasmic domain (Q12866 527-999): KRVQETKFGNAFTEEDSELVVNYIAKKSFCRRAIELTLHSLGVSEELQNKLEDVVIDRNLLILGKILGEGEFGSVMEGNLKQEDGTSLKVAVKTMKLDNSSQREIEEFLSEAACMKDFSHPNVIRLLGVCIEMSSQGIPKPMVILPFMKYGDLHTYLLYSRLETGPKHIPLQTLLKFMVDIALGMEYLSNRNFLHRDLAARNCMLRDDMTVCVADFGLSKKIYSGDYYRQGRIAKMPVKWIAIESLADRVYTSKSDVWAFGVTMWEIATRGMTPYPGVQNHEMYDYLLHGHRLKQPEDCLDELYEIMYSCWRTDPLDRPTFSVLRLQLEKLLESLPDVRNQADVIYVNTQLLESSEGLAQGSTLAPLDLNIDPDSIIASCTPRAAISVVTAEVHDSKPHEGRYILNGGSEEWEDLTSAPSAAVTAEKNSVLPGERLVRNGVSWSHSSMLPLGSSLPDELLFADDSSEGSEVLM
Sequence of His-tagged recombinant human AXL cytoplasmic domain (P30530 473-894): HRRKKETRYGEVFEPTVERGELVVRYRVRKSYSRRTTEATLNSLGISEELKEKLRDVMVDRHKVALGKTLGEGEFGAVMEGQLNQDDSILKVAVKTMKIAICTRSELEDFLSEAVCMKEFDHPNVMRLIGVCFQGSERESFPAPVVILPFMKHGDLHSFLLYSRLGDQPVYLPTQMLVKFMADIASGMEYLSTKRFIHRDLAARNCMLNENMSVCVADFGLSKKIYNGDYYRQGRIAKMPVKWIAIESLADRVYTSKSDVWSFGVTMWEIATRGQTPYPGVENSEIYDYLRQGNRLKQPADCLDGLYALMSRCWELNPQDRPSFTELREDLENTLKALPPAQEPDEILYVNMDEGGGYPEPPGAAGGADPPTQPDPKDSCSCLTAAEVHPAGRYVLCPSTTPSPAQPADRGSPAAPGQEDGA

Usually pIC50 stands for the negative decadic logarithm of the IC50, by convention in mol/L. Consider `CNc1cc2c(cn1)c(-c1cnn(C(C)(C)C#N)c1)nn2[C@H]1CC[C@@H](Oc2nccnc2C)CC1` [Example 212, 2-methyl-2-(4-(6-(methylamino)-1-((1s,4s)-4-((3-methylpyrazin-2-yl)oxy)cyclohexyl)-1H-pyrazolo[4,3-c]pyridin-3-yl)-1H-pyrazol-1-yl)propanenitrile], for which the pIC50 in assay [1] was greater than 8.00; in assay [2], greater than 8.00; in assay [3], 7.00 to 8.00.

As to `CNc1cc2c(cn1)c(-c1cnn(C)c1)nn2[C@@H]1CC[C@H](Oc2ccccc2)[C@@H](O)C1` (racemic) [Example 470, Racemic-(1S,2S,5R)-5-(3-(1-methyl-1H-pyrazol-4-yl)-6-(methylamino)-1H-pyrazolo[4,3-c]pyridin-1-yl)-2-phenoxycyclohexan-1-ol], the pIC50 is greater than 8.00 in assay [1], greater than 8.00 in assay [2] and 7.00 to 8.00 in assay [3].

In the case of `CCNc1cc2c(cn1)c(C1CCN(C3CCN(C)CC3)CC1)nn2[C@H]1CC[C@@H](Oc2nccc(C(F)(F)F)c2F)CC1` [Example 328, N-ethyl-1-((1s,4s)-4-((3-fluoro-4-(trifluoromethyl)pyridin-2-yl)oxy)cyclohexyl)-3-(1′-methyl-[1,4′-bipiperidin]-4-yl)-1H-pyrazolo[4,3-c]pyridin-6-amine], the pIC50 in assay [1], in assay [2] and in assay [3] was greater than 8.00 throughout.

As to `CNc1cc2c(cn1)c(-c1cnn(C)c1)nn2[C@H]1CC[C@@H](Oc2cccnc2C(C)C)CC1` [Example 165, 1-((1 s,4s)-4-((2-isopropylpyridin-3-yl)oxy)cyclohexyl)-N-methyl(1-methyl-1H-pyrazol-4-yl)-1H-pyrazolo[4,3-c]pyridin-6-amine], the results for the pIC50 in assay [1], in assay [2] and in assay [3] were greater than 8.00, greater than 8.00 and 7.00 to 8.00, respectively.

As for `CNc1cc2c(cn1)c(-c1cnn(C)c1)nn2[C@H]1CC[C@@H](Oc2cnn(C)c2C(F)(F)F)CC1` [Example 262, N-methyl-3-(1-methyl-1H-pyrazol-4-yl)-1-((1s,4s)-4-((1-methyl-5-(trifluoromethyl)-1H-pyrazol-4-yl)oxy)cyclohexyl)-1H-pyrazolo[4,3-c]pyridin-6-amine], the pIC50 in assay [1] is greater than 8.00; in assay [2], greater than 8.00; in assay [3] it was 7.00 to 8.00.

On to `CCNc1cc2c(cn1)c(-c1cnn(CC(C)(C)CO)c1)nn2[C@H]1CC[C@@H](Oc2nccc(C(F)(F)F)c2F)CC1` [Example 271, 3-(4-(6-(ethylamino)-1-((1s,4s)-4-((3-fluoro-4-(trifluoromethyl)pyridin-2-yl)oxy)cyclohexyl)-1H-pyrazolo[4,3-c]pyridin-3-yl)-1H-pyrazol-1-yl)-2,2-dimethylpropan-1-ol hydrochloride], for which the pIC50 was greater than 8.00 in assay [1], greater than 8.00 in assay [2] and 7.00 to 8.00 in assay [3].

As for `CCNc1cc2c(cn1)c(-c1cnn(C[C@@H](O)CO)c1)nn2[C@H]1CC[C@@H](Oc2cccc(Cl)c2)CC1` [Example 422], the values for the pIC50 in assay [1], in assay [2] and in assay [3] were greater than 8.00, greater than 8.00 and 7.00 to 8.00, respectively.

Take `CCNc1cc2c(cn1)c(-c1cnn(C)c1)nn2[C@H]1CC[C@@H](Oc2cccnc2C(F)(F)F)CC1` [Example 184, N-ethyl-3-(1-methyl-1H-pyrazol-4-yl)-1-((1s,4s)-4-((2-(trifluoromethyl)pyridin-3-yl)oxy)cyclohexyl)-1H-pyrazolo[4,3-c]pyridin-6-amine]: the pIC50 in assay [1], in assay [2] and in assay [3] was greater than 8.00 throughout.

Regarding `CCNc1cc2c(cn1)c(C1CCN(C)CC1)nn2[C@H]1CC[C@@H](Oc2nccc(C(F)(F)F)c2F)CC1` [Example 316, N-ethyl-1-((1s,4s)-4-((3-fluoro-4-(trifluoromethyl)pyridin-2-yl)oxy)cyclohexyl)-3-(1-methylpiperidin-4-yl)-1H-pyrazolo[4,3-c]pyridin-6-amine], the negative-log IC50 (pIC50) in assay [1] was greater than 8.00; in assay [2] it was greater than 8.00; in assay [3] it was 7.00 to 8.00.

`CCNc1cc2c(cn1)c(-c1cnn(C[C@@H](O)C(C)(C)O)c1)nn2[C@H]1CC[C@@H](Oc2ccccc2F)CC1` [Example 442, (R)-1-(4-(6-(ethylamino)-1-((1s,4S)-4-(2-fluorophenoxy)cyclohexyl)-1H-pyrazolo[4,3-c]pyridin-3-yl)-1H-pyrazol-1-yl)-3-methylbutane-2,3-diol]: the pIC50 in assay [1] was greater than 8.00; in assay [2], greater than 8.00; in assay [3] it was 7.00 to 8.00.

`CCNc1cc2c(cn1)c(N1CC[C@@H](N(C)C)C1)nn2[C@H]1CC[C@@H](Oc2nccc(C(F)(F)F)c2F)CC1` (stereo in doubt) [Example 334, 3-(®-3-(dimethylamino)pyrrolidin-1-yl)-N-ethyl-1-((1s,4S)-4-((3-fluoro-4-(trifluoromethyl)pyridin-2-yl)oxy)cyclohexyl)-1H-pyrazolo[4,3-c]pyridin-6-amine]: the pIC50 in assay [1], in assay [2] and in assay [3] was greater than 8.00 throughout.

On to `CNc1cc2c(cn1)c(-c1cnn(C(C)(C)C#N)c1)nn2[C@H]1CC[C@@H](Oc2cn(C)nc2C(F)(F)F)CC1` [Example 163, 2-methyl-2-(4-(1-((1s,4s)-4-((1-methyl-3-(trifluoromethyl)-1H-pyrazol-4-yl)oxy)cyclohexyl)-6-(methylamino)-lH-pyrazolo[4,3-c]pyridin-3-yl)-1H-pyrazol-1-yl)propanenitrile], for which the pIC50 in assay [1], in assay [2] and in assay [3] was greater than 8.00 throughout.

As for `CNc1cc2c(cn1)c(-c1cnn(CCS(C)(=O)=O)c1)nn2[C@H]1CC[C@@H](Oc2nccnc2C)CC1` [Example 211, N-methyl-1-((1s,4s)-4-((3-methylpyrazin-2-yl)oxy)cyclohexyl)-3-(1-(2-(methylsulfonyl)ethyl)-1H-pyrazol-4-yl)-1H-pyrazolo[4,3-c]pyridin-6-amine], the pIC50 in assay [1] is greater than 8.00; in assay [2], greater than 8.00; in assay [3] it was 7.00 to 8.00.

As for `CNc1cc2c(cn1)c(-c1cnn(C)c1)nn2[C@H]1CC[C@@H](Oc2cc(Cl)cnc2C#N)CC1` [Example 175, 5-chloro-3-(((1s,4s)-4-(3-(1-methyl-1H-pyrazol-4-yl)-6-(methylamino)-1H-pyrazolo[4,3-c]pyridin-1-yl)cyclohexyl)oxy)picolinonitrile], the pIC50 in assay [1] is greater than 8.00; in assay [2] it was greater than 8.00; in assay [3], 7.00 to 8.00.

For `C#Cc1ncccc1OC1CCC(n2nc(-c3cnn(C)c3)c3cnc(NCC)cc32)CC1` (stereo not drawn) [Example 199, N-ethyl-1-((1s,4s)-4-((2-ethynylpyridin-3-yl)oxy)cyclohexyl)-3-(1-methyl-1H-pyrazol-4-yl)-1H-pyrazolo[4,3-c]pyridin-6-amine], the pIC50 in assay [1], in assay [2] and in assay [3] was greater than 8.00 in each case.

As to `CNc1cc2c(cn1)c(-c1cnn(C)c1)nn2[C@@H]1CC[C@H](Oc2ccccc2)[C@@H](O)C1` [Example 471A, (1S,2S,5R)-5-(3-(1-methyl-1H-pyrazol-4-yl)-6-(methylamino)-1H-pyrazolo[4,3-c]pyridin-1-yl)-2-phenoxycyclohexan-1-ol], the pIC50 is greater than 8.00 in assay [1], greater than 8.00 in assay [2] and 7.00 to 8.00 in assay [3].

Consider `CCNc1cc2c(cn1)c(-c1cnn(C(C)(C)CO)c1)nn2[C@H]1CC[C@@H](Oc2nccc(C(F)(F)F)c2F)CC1` [Example 299, 2-(4-(6-(ethylamino)-1-((1s,4s)-4-((3-fluoro-4-(trifluoromethyl)pyridin-2-yl)oxy)cyclohexyl)-1H-pyrazolo[4,3-c]pyridin-3-yl)-1H-pyrazol-1-yl)-2-methylpropan-1-ol], for which the pIC50 in assay [1] is greater than 8.00; in assay [2], greater than 8.00; in assay [3], 7.00 to 8.00.

For `CCNc1cc2c(cn1)c(-c1ccc(=O)n(C)c1)nn2[C@H]1CC[C@@H](Oc2nccc(C(F)(F)F)c2F)CC1` [Example 298, 5-(6-(ethylamino)-1-((1s,4s)-4-((3-fluoro-4-(trifluoromethyl)pyridin-2-yl)oxy)cyclohexyl)-1H-pyrazolo[4,3-c]pyridin-3-yl)-1-methylpyridin-2(1H)-one], the pIC50 is greater than 8.00 in assay [1], greater than 8.00 in assay [2] and 7.00 to 8.00 in assay [3].

Consider `CNc1cc2c(cn1)c(-c1ccn(C)c(=O)c1)nn2[C@H]1CC[C@@H](Oc2cccnc2C(F)(F)F)CC1` [Example 216, 1-methyl-4-(6-(methylamino)-1-((1s,4s)-4-((2-(trifluoromethyl)pyridin-3-yl)oxy)cyclohexyl)-1H-pyrazolo[4,3-c]pyridin-3-yl)pyridin-2(1H)-one], for which the pIC50 in assay [1], in assay [2] and in assay [3] was greater than 8.00 in each case.

Consider `CNc1cc2c(cn1)c(-c1cnn(C[C@@H](O)CO)c1)nn2[C@H]1CC[C@@H](Oc2ccccc2C(F)(F)F)CC1` [Example 419, (R)-3-(4-(6-(methylamino)-1-((1s,4S)-4-(2-(trifluoromethyl)phenoxy)-cyclohexyl)-1H-pyrazolo[4,3-c]pyridin-3-yl)-1H-pyrazol-1-yl)propane-1,2-diol], for which the pIC50 in assay [1] was greater than 8.00; in assay [2], greater than 8.00; in assay [3], 7.00 to 8.00.

For the compound `CNc1cc2c(cn1)c(-c1cnn(C(C)(C)C#N)c1)nn2[C@H]1CC[C@@H](Oc2cccnc2C(F)(F)F)CC1` [Example 160, 2-methyl-2-(4-(6-(methylamino)-1-((1s,4s)-4-((2-(trifluoromethyl)pyridin-3-yl)oxy)cyclohexyl)-1H-pyrazolo[4,3-c]pyridin-3-yl)-1H-pyrazol-1-yl)propanenitrile], the pIC50 in assay [1], in assay [2] and in assay [3] was greater than 8.00 each time.
